The source of these data is patent publication US10058593B2, “Methods and compositions for oral administration of proteins” (Oramed Ltd., priority 2008, dated 2018).

For the test, the system named is dogs. Put plainly: Previous experiment in dogs treated with the same formulations. The class given is in vivo, dog. As for the experimental part: 4 days prior to dosing, formulation were prepared containing: (1) 8 mg insulin, 150 mg EDTA, 125 mg SBTI in 1 ml fish oil in a soft-gel capsule (SwissCup), (2). 8 mg insulin, 150 mg EDTA, 150000 KIU Aprotinin in 1 ml fish oil in a soft-gel capsule (SwissCup), (3) 8 mg insulin, 150 mg EDTA, 150000 KIU Aprotinin, 125 mg SBTI in 1 ml fish oil in a soft-gel capsule (SwissCup). The formulations were stored in the refrigerator (4° C.) until dosing.
Thus, the results regarding the reduction in blood glucose levels with insulin and a combination of protease inhibitors was unexpected.
Thus, the results regarding the reduction in blood C-peptide levels with insulin and a combination of protease inhibitors was unexpected.
The above described formulations are also active with 0.5 ml fish oil both in dogs and humans.

Consider Aprotinin, for which the “reaction of dogs to Aprotinin” value is given as “do not react”.
